Data: US20030171398A1, “Food compositions for reducing insulin resistance” (Unilever Patent Holdings BV, priority 2001, published 2003)

Assays:
[1] = test system: Human skeletal muscle cells (SMCs); assay: Glucose uptake assay in human skeletal muscle cells ([3H]2-deoxyglucose); assay type: cell-based
Experimental: Human skeletal muscle cells (SMCs) were obtained from TCS 2000 Ltd. Cells were seeded into 12-well plates at a density of 3×10^4 cells/well and then grown and differentiated as instructed by TCS. Differentiated human SMCs were incubated, for 32 hours at 37° C./5% CO2, in differentiation media (supplied by TCS) supplemented with an appropriate amount of agent or vehicle. Media was then changed to serum free media (MEM-alpha media, 2 mM glutamine, 100 iu/ml penicillin and 100 μg/ml streptomycin), supplemented as before, and the cells incubated for a further 16 hours.
Cells were then washed 3×with Krebs Ringer Phosphate (KRP) buffer [136 mM NaCl, 4.7 mM KCl, 1.25 mM CaCl2, 1.25 mM MgSO4, 10 mM sodium phosphate buffer, pH 7.4] and incubated in KRP (0.5 ml/well) for 30 minutes at 37° C./5% CO2. After 30 minutes incubation the glucose uptake assay was initiated by addition of 25 μl KRP containing 5 μCi [^3H]2-deoxyglucose and 1 mM deoxyglucose. After 10 minutes the reaction was terminated by washing the cells 3×with ice-cold PBS. Cells were then solublised with 125 μl/well of 1% Triton X-100 for 20 minutes at 37° C. Radioactive incorporation was measured by scintillation counting. 100 μl of each sample was analysed.

human PPARγ1 = target: T1, human PPARγ1 (Homo sapiens, UniProt P37231); assay: PPARgamma reporter gene assay (luciferase) in transfected cos-7 cells; assay type: cell-based
T1 construct: expressed in transfected cells; host or cells: cos-7 cells (ECACC No. 87021302)
T1 sequence (P37231 1-477 isoform P37231-2): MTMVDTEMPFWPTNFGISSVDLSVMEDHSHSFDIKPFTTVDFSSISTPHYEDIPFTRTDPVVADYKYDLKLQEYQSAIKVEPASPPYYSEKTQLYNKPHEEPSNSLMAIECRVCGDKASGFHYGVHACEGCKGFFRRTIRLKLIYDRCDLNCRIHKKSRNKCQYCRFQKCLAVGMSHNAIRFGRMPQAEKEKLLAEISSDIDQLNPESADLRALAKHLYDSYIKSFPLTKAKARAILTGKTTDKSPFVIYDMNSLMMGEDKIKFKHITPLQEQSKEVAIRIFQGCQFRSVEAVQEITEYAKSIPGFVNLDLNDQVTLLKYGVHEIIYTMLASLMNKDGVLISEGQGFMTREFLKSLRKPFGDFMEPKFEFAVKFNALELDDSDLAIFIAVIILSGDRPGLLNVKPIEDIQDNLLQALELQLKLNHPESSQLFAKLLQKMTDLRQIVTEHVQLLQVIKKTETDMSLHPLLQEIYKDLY
T1 sequence (P19793 1-462 partner): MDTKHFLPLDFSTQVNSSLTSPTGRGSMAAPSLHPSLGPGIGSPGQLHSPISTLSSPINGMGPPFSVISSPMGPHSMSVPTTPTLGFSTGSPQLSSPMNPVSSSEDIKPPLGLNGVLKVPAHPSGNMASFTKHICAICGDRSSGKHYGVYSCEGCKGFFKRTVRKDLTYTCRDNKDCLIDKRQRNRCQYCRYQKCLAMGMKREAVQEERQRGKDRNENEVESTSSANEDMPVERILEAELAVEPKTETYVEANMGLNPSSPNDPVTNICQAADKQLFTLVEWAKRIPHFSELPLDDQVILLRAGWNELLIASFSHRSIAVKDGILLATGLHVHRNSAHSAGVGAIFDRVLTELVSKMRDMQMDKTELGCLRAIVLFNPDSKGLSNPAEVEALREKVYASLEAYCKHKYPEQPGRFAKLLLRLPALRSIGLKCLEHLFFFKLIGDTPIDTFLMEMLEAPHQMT
Experimental: PPARgamma receptor activity is determined by a suitable reporter gene assay. Preferably the reporter gene assay used comprises the transcription induction of a luciferase gene. Levels of firefly luciferase (normalised against the renilla luciferase control) provide a measure of reporter gene activity which in turn reflects the level of activation.
This assay is based on that described by Kliewer et al (Nature 358 771-774 1992). In brief, cos-7 cells (ECACC No. 87021302) were seeded in 24-well plates at a density of 0.325×10^5 cells/well. Cells were grown overnight at 37° C./5% CO2 in DMEM containing 10% FCS, 2 mM L-glutamine, 100 iu/ml penicillin and 100 µg/ml streptomycin. Cells were washed with transfection media (DMEM containing 2 mM L-glutamine) then transiently transfected with 4 plasmids: a PPAR-responsive firefly luciferase reporter gene (pPPRE3TK-luc); mammalian expression plasmids (pcDNA3/hPPARγ1 and pRSV/hRXRα) containing human PPARγ1 and RXRα cDNAs respectively and a control plasmid (PRLTK, Promega) which constitutatively expresses the renilla luciferase gene. Transfection was performed using Lipofectamine (Gibco Brl) as directed by the manufacturers. Transfected cells were incubated for 6 h at 37° C./5% CO2 and then for a further 46 hours in the presence or absence of ligand. After 46 hours cell lysates were prepared and the level of firefly and renilla luciferase determined using the Dual luciferase assay system (Promega) and a MLX microtitre plate luminometer (Dynex). The level of firefly luciferase (normalised against the renilla luciferase control) provides a measure of reporter gene activity. This in turn reflect the level of PPARγ activation.
A double-stranded PPAR-binding site was prepared using the ‘Klenow fill-in’ technique. A 113 bp oligonucleotide (PPRE1/3) containing a triplet of PPREs and appropriate restriction endonuclease sites was designed. PPRE1/3 and a 20 bp oligonucleotide (PPRE1/3R) complementary to the 3′ region of PPRE1/3 were synthesised.
In a final volume of 20 μl 2 μg of PPRE1/3R was annealed to 2 μg of PPRE1/3 by boiling for 5 minutes and then cooling slowly to room temperature. Annealed PPRE1/3R was used to prime second-strand DNA synthesis. A 30 μl reaction mix containing 20 μl annealed DNA, 1.5 μl 2 mM dNTPs, 1×Klenow Buffer and 5 units DNA Polymerase I (Klenow fragment) was incubated for 1 hour at 37° C. and then 10 minutes at 75° C. A 5 μl sample of the synthesised product was analysed on a 3% agarose gel. The remaining product was purified by ethanol precipitation and resuspended in sterile water. The double-stranded PPAR-binding site (insert) was digested with MluI and BgllI for 1 hour at 37° C. and then purified by ethanol precipitation. 1 μg of the vector pNF-κB-luc (Clontech) was digested with MluI and BgllI for 1 hour at 37° C. and then analysed on a 1% agarose gel Digested DNA was purified from the gel using a Qiaquick Gel Extraction Kit (Qiagen). Digested vector and insert DNA were incubated for 4 hours at room temperature in a volume of 15 μl containing 1×ligase buffer and 5 units T4 DNA ligase. The full ligation reaction was used to transform competant E.coli JM109 cells (Promega).

[2] = 1.25 μg/ml, purified components, Table 8
[3] = 2.5 μg/ml, purified components, Table 8
[4] = 5 μg/ml, purified components, Table 8

With CC1(COc2ccc(CC3SC(=O)NC3=O)cc2)CCCCC1 (centres unmarked) [Ciglitizone] the “[3H] 2-deoxyglucose uptake (Fold-induction relative to vehicle) Mean” value ([1]; 2.5 uM) was 1.3 Fold-induction and the “[3H] 2-deoxyglucose uptake (Fold-induction relative to vehicle) Mean” value ([1]; 5 uM) was 3.3 Fold-induction.
For C/C(=C\CC/C(C)=C/CCC1[C@](C)(O)CC[C@H]2C(C)(C)C(=O)CC[C@]12C)CC/C=C(\C)C(=O)O (stereo partly drawn) [Commipheric acid, 13-(decahydro-2-hydroxy-2,5,5,8a-tetramethyl-6-oxo-1-naphthalenyl)-2,6,10-trimethyl-, [1R-[1α(2E,6E,10E),2β,4aβ,8aα]]-2,6,10-tridecatrienoic acid], the “Activation of PPARgamma in the reporter gene assay (in words)” value (“Activation of PPARgamma” below) (human PPARγ1) was “able to activate PPARgamma”, the “Reporter gene activity (Fold-induction relative to the vehicle) Mean” value (human PPARγ1; [2]) was 2.56 Fold-induction and the “Reporter gene activity (Fold-induction relative to the vehicle) Mean” value (human PPARγ1; [3]) was 3.40 Fold-induction. For the same compound, the “Reporter gene activity (Fold-induction relative to the vehicle) Mean” value (human PPARγ1; [4]) was 8.01 Fold-induction.
For C/C(=C\CC/C(C)=C/CC/C(C)=C/CC[C@@H]1[C@@]2(C)CCC(=O)C(C)(C)[C@@H]2CC[C@@]1(C)O)CO [Commipherol, Octahydro-6-hydroxy-5-(13-hydroxy-4,8,12-trimethyl-3,7,11-tridecatrienyl)-1,1,4a,6-tetramethyl-, [4aS-[4aα,5α(3E,7E,11E),6β,8aβ]]-2(1H)-naphthalenone], the “Activation of PPARgamma” value (human PPARγ1) was “activate PPARgamma to a lesser degree”, the “Reporter gene activity (Fold-induction relative to the vehicle) Mean” value (human PPARγ1; [2]) was 3.41 Fold-induction and the “Reporter gene activity (Fold-induction relative to the vehicle) Mean” value (human PPARγ1; [3]) was 4.97 Fold-induction.
In the case of C/C=C1/C(=O)C[C@H]2[C@@H]3CCC4=CC(=O)CC[C@]4(C)[C@H]3CC[C@]12C [E-guggulsterone, reference compound], the “Activation of PPARgamma” value (human PPARγ1) is reported as “neither the E-nor the Z-form of guggulsterone can activate PPARgamma” and the “Reporter gene activity (Fold-induction relative to the vehicle) Mean” value (human PPARγ1; 5 μg/ml, Table 9) is reported as 0.4 Fold-induction.
For C/C(=C\CC/C(C)=C/CC/C(C)=C/CCC1C(C)(O)CCC2C(C)(C)C(O)CCC12C)CO [Myrrhanol A, Decahydro-5-[(3E,7E,11E)-13-hydroxy-4,8,12-trimethyl-3,7,11-tridecatrienyl]-1,1,4a,6-tetramethyl-, (2S,4aS,5R,6R,8aS)-2,6-naphthalenediol], the “Activation of PPARgamma” value (human PPARγ1) was “activate PPARgamma to a lesser degree”, the “Reporter gene activity (Fold-induction relative to the vehicle) Mean” value (human PPARγ1; [2]) was 1.14 Fold-induction and the “Reporter gene activity (Fold-induction relative to the vehicle) Mean” value (human PPARγ1; [3]) was 1.74 Fold-induction. The “Reporter gene activity (Fold-induction relative to the vehicle) Mean” value (human PPARγ1; [4]) was 3.87 Fold-induction.
For C/C=C1\C(=O)C[C@H]2[C@@H]3CCC4=CC(=O)CC[C@]4(C)[C@H]3CC[C@]12C [Z-guggulsterone, reference compound], the “Activation of PPARgamma” value (human PPARγ1) was “neither the E-nor the Z-form of guggulsterone can activate PPARgamma” and the “Reporter gene activity (Fold-induction relative to the vehicle) Mean” value (human PPARγ1; 5 μg/ml, Table 9) was 0.5 Fold-induction.
